In series [1] the target is T1, human Tie2 (Homo sapiens, UniProt Q02763).
T1 construct: corresponding to the intracellular domain amino acids 776-1124 was generated by PCR; made in house; host or cells: baculovirus expression vector pFastBacGT
In words: phosphorylation of PLC by Tie2 (GST-Tie2), FlashPlate. The series is classed as biochemical. To be noted: read-out: TIE2 IC 50. On the procedure: The human Tie2 coding sequence corresponding to the intracellular domain amino acids 776-1124 was generated by PCR using the cDNA isolated from human placenta as a model. This sequence was introduced into a baculovirus expression vector pFastBacGT in the form of a GST fusion protein.
The inhibitory effect of the molecules is determined in an assay for phosphorylation of PLC by Tie2 in the presence of GST-Tie2 purified to approximately 80% homogeneity. The substrate is made up of the SH2-SH3 fragments of PLC expressed in the form of a GST fusion protein.
The kinase activity of Tie2 is measured in a 20 mM MOPS buffer, pH 7.2, containing 10 mM MgCl2, 10 mM MnCl2, 1 mM DTT and 10 mM of glycerophosphate. A reaction mixture made up to 70 μl of kinase buffer containing 100 ng of GST-Tie2 enzyme is deposited into each well of a 96-well FlashPlate kept on ice. 10 μl of the test molecule diluted in DMSO at a maximum concentration of 10% are then added. For a given concentration, each measurement is determined in quadruplicate. The reaction is initiated by adding 20 μl of solution containing 2 μg of GST-PLC, 2 μM of cold ATP and 1 μCi of ^33P [ATP]. After incubation at 37° C. for 1 hour, the reaction is stopped by adding 1 volume (100 μl) of 200 mM EDTA. After the incubation buffer has been removed, the wells are washed three times with 300 μl of PBS. The radioactivity is measured on a Wallac MicroBeta 1450.
The inhibition of the Tie2 activity is calculated and expressed as percentage inhibition with respect to the control activity determined in the absence of compound.

Series [2] concerns the target T2, human KDR enzyme (Homo sapiens, UniProt P35968).
T2 construct: The cytoplasmic domain of the human KDR enzyme was cloned in the form of a GST fusion; GST; made in house; host or cells: SF21 insect cells (baculovirus, pFastBac)
In words: phosphorylation of substrate by the KDR enzyme in vitro, scintillation technique. The format is biochemical. To be noted: read-out: KDR IC 50. On the procedure: The inhibitory effect of the compounds is determined in an assay for phosphorylation of substrate by the KDR enzyme in vitro using a scintillation technique (96-well plate, NEN).
The cytoplasmic domain of the human KDR enzyme was cloned in the form of a GST fusion into the baculovirus expression vector pFastBac. The protein was expressed in SF21 cells and purified to approximately 60% homogeneity.
The kinase activity of KDR is measured in 20 mM MOPS, 10 mM MgCl2, 10 mM MnCl2, 1 mM DTT, 2.5 mM EGTA, 10 mM β-glycerophosphate, pH=7.2, in the presence of 10 mM MgCl2, 100 μM Na3VO4, 1 mM NaF. 10 μl of the compound are added to 70 μl of kinase buffer containing 100 ng of KDR enzyme at 4° C. The reaction is initiated by adding 20 μl of solution containing 2 μg of substrate (SH2-SH3 fragment of PLCγ expressed in the form of a GST fusion protein), 2 μCi γ ^33P[ATP] and 2 μM cold ATP. After incubation at 37° C. for 1 hour, the reaction is stopped by adding 1 volume (100 μl) of 200 mM EDTA. The incubation buffer is removed and the wells are washed three times with 300 μl of PBS. The radioactivity is measured in each well using a Top Count NXT radioactivity counter (Packard).
The background noise is determined by measuring the radioactivity in four different wells containing the radioactive ATP and the substrate alone.
A control for total activity is measured in four different wells containing all the reactants (γ^33P-[ATP], KDR and PLCY substrate) but in the absence of compound.
The inhibition of the KDR activity with the compound of the invention is expressed as percentage inhibition of the control activity determined in the absence of compound.
The compound SU5614 (Calbiochem) (1 μM) is included in each plate as an inhibition control.

Each structure is given as a SMILES string. A value given as a limit tells only on which side of the number the result lay.

T1 sequence (Q02763 776-1124): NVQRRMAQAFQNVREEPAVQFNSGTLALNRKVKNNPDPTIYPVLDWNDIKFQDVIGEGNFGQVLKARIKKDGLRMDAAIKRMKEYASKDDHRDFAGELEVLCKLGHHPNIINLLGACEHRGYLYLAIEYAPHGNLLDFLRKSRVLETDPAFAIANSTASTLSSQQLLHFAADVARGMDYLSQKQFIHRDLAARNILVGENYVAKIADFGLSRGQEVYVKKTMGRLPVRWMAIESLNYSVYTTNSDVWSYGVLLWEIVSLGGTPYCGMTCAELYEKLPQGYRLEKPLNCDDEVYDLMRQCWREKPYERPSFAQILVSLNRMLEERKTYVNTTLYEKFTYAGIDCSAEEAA
T2 sequence (P35968 786-1356 limits assumed): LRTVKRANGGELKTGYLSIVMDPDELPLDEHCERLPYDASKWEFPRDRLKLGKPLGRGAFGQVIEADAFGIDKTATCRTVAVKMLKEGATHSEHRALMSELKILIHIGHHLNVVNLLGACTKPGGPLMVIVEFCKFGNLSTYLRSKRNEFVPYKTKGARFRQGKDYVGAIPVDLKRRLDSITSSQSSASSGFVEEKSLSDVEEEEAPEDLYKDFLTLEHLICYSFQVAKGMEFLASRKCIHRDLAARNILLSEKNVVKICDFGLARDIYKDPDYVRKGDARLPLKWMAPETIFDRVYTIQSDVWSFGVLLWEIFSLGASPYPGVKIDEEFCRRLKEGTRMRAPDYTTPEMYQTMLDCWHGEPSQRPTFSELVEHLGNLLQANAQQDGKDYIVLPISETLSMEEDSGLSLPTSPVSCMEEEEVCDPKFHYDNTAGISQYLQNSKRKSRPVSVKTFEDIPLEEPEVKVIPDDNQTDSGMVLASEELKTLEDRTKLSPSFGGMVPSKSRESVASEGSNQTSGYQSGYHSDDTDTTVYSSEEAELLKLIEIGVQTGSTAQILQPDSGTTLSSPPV

As for `Cc1ccc(-n2nc(C(C)(C)C)cc2NC(=O)Nc2ccc(-c3c(C(N)=O)[nH]c4ccccc34)cc2)cc1` [Example 15, 3-{4-[3-(5-tert-Butyl-2-p-tolyl-2H-pyrazol-3-yl)ureido]phenyl}-1H-indole-2-carboxamide], the melting point was more than 260 °C.

Regarding `NC(=O)c1[nH]c2ccccc2c1-c1ccc(NC(=O)Nc2cc(C(F)(F)F)ccc2F)cc1` [Example 1, 3-{4-[3-(2-Fluoro-5-trifluoromethylphenyl)-ureido]phenyl}-1H-indole-2-carboxamide], the melting point was 240 to 242 °C. In addition, in series [1], the IC50 was determined as 0.003 µM. Moreover, the IC50 in series [2] amounted to 0.035 µM.

The compound `NC(=O)c1[nH]c2ccccc2c1-c1ccc(NC(=O)Nc2ccc(C(F)(F)F)c(Cl)c2)cc1` [Example 9, 3-{4-[3-(3-Chloro-4-trifluoromethylphenyl)-ureido]phenyl}-1H-indole-2-carboxamide] showed a melting point of 168 to 170 °C. In addition, the IC50 in series [1] was 0.017 µM. For the same compound, the IC50 in series [2] turned out to be 0.138 µM.

`NC(=O)c1[nH]c2cccnc2c1-c1ccc(NC(=O)Nc2cc(C(F)(F)F)ccc2F)cc1` [Example 2, 3-{4-[3-(2-Fluoro-5-trifluoromethylphenyl)-ureido]phenyl}-1H-pyrrolo[3,2-b]pyridine-2-carboxamide] yielded a melting point of 206 to 208 °C. Moreover, in series [1], the IC50 came to 0.004 µM. The IC50 in series [2] came to 0.012 µM.

`NC(=O)c1[nH]c2ccccc2c1-c1ccc(NC(=O)Nc2ccc(OC(F)(F)F)cc2)cc1` [Example 11, 3-{4-[3-(4-Trifluoromethoxyphenyl)ureido]-phenyl}-1H-indole-2-carboxamide]: the melting point lay in the range of 162 to 164 °C. In series [1], the IC50 came out at 0.105 µM. Besides, in series [2], the IC50 was 0.153 µM.

As for `COCc1ccc(C(F)(F)F)cc1NC(=O)Nc1ccc(-c2c(C(N)=O)[nH]c3ccccc23)cc1` [Example 20, 3-{4-[3-(2-Methoxymethyl-5-trifluoromethylphenyl)ureido]phenyl}-1H-indole-2-carboxamide], the IC50 in series [1] stood at 0.059 µM; in series [2] it was 0.234 µM.

`COc1ccc(C(F)(F)F)cc1NC(=O)Nc1ccc(-c2c(C(N)=O)[nH]c3ccccc23)cc1` [Example 12, 3-{4-[3-(2-Methoxy-5-trifluoromethylphenyl)ureido]phenyl}-1H-indole-2-carboxamide] displayed a melting point of 178 to 180 °C.

Regarding `COCCOc1ccc2c(-c3ccc(NC(=O)Nc4cc(C(F)(F)F)ccc4F)cc3)c(C(N)=O)[nH]c2c1` [Example 23, 3-{4-[3-(2-Fluoro-5-trifluoromethylphenyl)-ureido]phenyl}-6-(2-methoxyethoxy)-1H-indole-2-carboxamide], the IC50 in series [1] turned out to be 0.007 µM; in series [2], 0.09 µM.

Compound `NC(=O)c1[nH]c2ccccc2c1-c1ccc(NC(=O)Nc2ccccc2)cc1` [Example 3, 3-[4-(3-Phenylureido)phenyl]-1H-indole-2-carboxamide] gave a melting point of 232 to 234 °C. Also, the IC50 in series [1] turned out to be 0.296 µM. In series [2], the IC50 stood at 1.52 µM.

With `NC(=O)c1[nH]c2c(N)cccc2c1-c1ccc(NC(=O)Nc2cc(C(F)(F)F)ccc2F)cc1` [Example 30, 7-Amino-3-{4-[3-(2-fluoro-5-trifluoromethylphenyl)ureido]phenyl}-1H-indole-2-carboxamide], the IC50 was 0.007 µM in series [1] and 0.031 µM in series [2].

As to `NC(=O)c1[nH]c2ccccc2c1-c1ccc(NC(=O)Nc2ccc(OC(F)F)cc2)cc1` [Example 37, 3-{4-[3-(4-Difluoromethoxy-phenyl)ureido]phenyl}-1H-indole-2-carboxamide], the IC50 in series [1] was found to be 0.291 µM; in series [2], 0.199 µM.

As for `NC(=O)c1[nH]c2ccccc2c1-c1ccc(NS(=O)(=O)c2cccc(Cl)c2Cl)cc1` [Example 14, 3-[4-(2,3-Dichlorobenzenesulfonylamino)-phenyl]-1H-indole-2-carboxamide], the melting point is more than 260 °C.

In turn, `Cc1ccc(F)c(NC(=O)Nc2ccc(-c3c(C(N)=O)[nH]c4ccccc34)cc2)c1` [Example 16] had a melting point of 220 °C.

As for `NC(=O)c1[nH]c2ccccc2c1-c1ccc(NC(=O)Nc2cc(C(F)(F)F)ccc2CN2CCCC2)cc1` [Example 19, 3-{4-[3-(2-Pyrrolidin-1-ylmethyl-5-trifluoromethylphenyl)ureido]phenyl}-1H-indole-2-carboxamide], the IC50 came to 0.22 µM in series [1] and 1.89 µM in series [2].

As for `CN(C)CC(=O)Nc1cccc2c(-c3ccc(NC(=O)Nc4cc(C(F)(F)F)ccc4F)cc3)c(C(N)=O)[nH]c12` [Example 32, 7-(2-Dimethylaminoacetylamino)-3-{4-[3-(2-fluoro-5-trifluoromethylphenyl)ureido]phenyl}-1H-indole-2-carboxamide], the IC50 in series [1] was 0.028 µM; in series [2], 0.144 µM.

For `Cc1cccc(NC(=O)Nc2ccc(-c3c(C(N)=O)[nH]c4ccccc34)cc2)c1` [Example 4, 3-[4-(3-m-Tolylureido)phenyl]-1H-indole-2-carboxamide], the melting point was in the range of 140 to 142 °C. Also, the IC50 in series [1] amounted to 0.019 µM. Also, the IC50 in series [2] worked out at 0.181 µM.

Compound `NC(=O)c1[nH]c2ccccc2c1-c1ccc(NC(=O)Nc2ccccc2F)cc1` [Example 7, 3-[4-(2-Fluorophenylureido)phenyl]-1H-indole-2-carboxamide] yielded a melting point of 146 to 148 °C. Besides, in series [1], the IC50 worked out at 0.142 µM. Further, the IC50 in series [2] came out at 1.75 µM.

For the compound `NC(=O)c1[nH]c2c(NCCO)cccc2c1-c1ccc(NC(=O)Nc2cc(C(F)(F)F)ccc2F)cc1` [Example 31, 3-{4-[3-(2-Fluoro-5-trifluoromethylphenyl)-ureido]phenyl}-7-(2-hydroxyethylamino)-1H-indole-2-carboxamide], the IC50 in series [1] was 0.006 µM; in series [2] it was 0.075 µM.

Compound `NC(=O)c1[nH]c2ccccc2c1-c1ccc(NC(=O)Nc2cccc(C(F)(F)F)c2)cc1` [Example 5, 3-[4-(3-Trifluoromethylphenylureido)phenyl]-1H-indole-2-carboxamide] displayed a melting point of 156 to 158 °C. In addition, the IC50 in series [1] is 0.006 µM. The IC50 in series [2] amounted to 0.05 µM.

Regarding `CC(C)c1ccc(NC(=O)Nc2ccc(-c3c(C(N)=O)[nH]c4ccccc34)cc2)cc1` [Example 53, 3-{4-[3-(4-Isopropyl-phenyl)ureido]phenyl}-1H-indole-2-carboxamide], the IC50 worked out at 0.151 µM in series [1] and 0.153 µM in series [2].

`Cn1c(C(N)=O)c(-c2ccc(NC(=O)Nc3cc(C(F)(F)F)ccc3F)cc2)c2ccccc21` [Example 8, 3-{4-[3-(2-Fluoro-5-trifluoromethylphenyl)-ureido]phenyl}-1-methyl-1H-indole-2-carboxamide] displayed a melting point of more than 260 °C. Besides, the IC50 in series [1] worked out at 0.027 µM. In series [2], the IC50 stood at 0.26 µM.

For `NC(=O)c1[nH]c2ccc[n+]([O-])c2c1-c1ccc(NC(=O)Nc2cc(C(F)(F)F)ccc2F)cc1` [Example 21, 3-{4-[3-(2-Fluoro-5-trifluoromethylphenyl)-ureido]phenyl}-4-oxy-1H-pyrrolo[3,2-b]pyridine-2-carboxamide], the IC50 turned out to be 0.032 µM in series [1] and 0.195 µM in series [2].

`NC(=O)c1[nH]c2ccccc2c1-c1ccc(NS(=O)(=O)c2cc(C(F)(F)F)ccc2F)cc1` [Example 13, 3-[4-(2-Fluoro-5-trifluoromethylbenzenesulfonylamino)phenyl]-1H-indole-2-carboxamide]: the melting point was in the range of 176 to 178 °C.

By melting point is commonly meant the temperature of the solid-liquid transition.

Source of the values: patent US7566736B2, “Substituted indoles, compositions containing them, method for the production thereof and their use” (Aventis Pharma S.A., priority 2004, dated 2009).
